The source of these data is patent publication US9630977B2, “Cephalosporin derivatives and pharmaceutical compositions thereof” (Legochem Biosciences, Inc., priority 2011, dated 2017).

Structures are written as SMILES. In brackets after ≈: the same amount, converted by molar mass. Some results are limits rather than exact numbers.

The test system of assay [1] is A. baumannii (6 clinical isolates). Kind of assay: Antibacterial activity on representative drug-resistance bacteria: number of clinical isolates per MIC value. The assay is classed as cell-based. Particulars: A. baumanni (N = 6). Here is the method:
(§1) The in vitro antibacterial activity was evaluated by measuring MIC90 (ug/mL) of each of the compounds of Examples 1 to 68, which is defined as the lowest concentration of an antibiotic that will inhibit the visible growth of 90% of microorganisms after incubation as compared with a control group to which the antibiotic is not treated. MIC90 values were measured by the broth microdilution method developed by the Clinical and Laboratory Standards Institute (CLSI) (see CLSI M7-A5, Methods for Dilution Antimicrobial Susceptibility Test for Bacteria that Grow Aerobically-Fifth Edition (2000): CLSI, Villanova, Pa.).
(§2) Test compounds each (the cephalosporin derivative compounds prepared in Examples 1 to 68) were dissolved in DMSO at the concentration of 10,240 ug/mL, were diluted by two fold with DMSO, and then were diluted by twenty fold with sterilized distilled water. The final concentration in the antibacterial activity test was in the range of […] to 128 ug/mL, and the final concentration of DMSO used as an adjuvant was 2.5% (V/V).

Assay [2] deals with K. pneumoniae (38 clinical isolates). The assay is described as above. The assay is classed as cell-based. Particulars: K. pneumomiae (N = 38). Here is the method: as §1, §2
Assay [3] relates to P. aeruginosa (16 clinical isolates). The assay is described as above. The assay is classed as cell-based. Conditions: P. aeruginosa (N = 16). Here is the method: as §1, §2
For assay [4], the system named is A. baumannii 46. The experiment in a line: In vitro antibacterial activity test (broth microdilution). Type of assay: cell-based. Conditions: Acinetobacter baumannii; A. baumannii 46; read-out: MIC90. The gist of the method:
(§3)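 Clinical isolates; CLSI broth microdilution; MIC90 in ug/mL; final compound range 0.0626–128 ug/mL; DMSO 2.5% (V/V) final.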

Assay [5] deals with A. baumannii 49. The description is as above. Type of assay: cell-based. Particulars: Acinetobacter baumannii; A. baumannii 49; read-out: MIC90. The gist of the method: as §3
The subject of assay [6] is A. baumannii 52. The assay is described as above. Particulars: Acinetobacter baumannii; A. baumannii 52; read-out: MIC90. The assay is classed as cell-based. The method in brief: as §3
Assay [7] concerns A. calcoaceticus ATCC15473. Described as above. Type of assay: cell-based. Particulars: Acinetobacter calcoaceticus; A. calcoaceticus ATCC15473; read-out: MIC90. The method in brief: as §3
Assay [8] relates to E. cloacae β19. The assay is described as above. The assay is classed as cell-based. Particulars: Enterobacter cloacae, read-out: MIC90. The gist of the method: as §3
Assay [9] concerns E. coli AG100. The assay is described as above. Conditions: Escherichia coli, AG100, E. coli AG100; read-out: MIC90. Type of assay: cell-based. The method in brief: as §3
Assay [10] relates to E. coli β4. Described as above. Type of assay: cell-based. Conditions: Escherichia coli, read-out: MIC90. The method in brief:
as §3

For assay [11], the system named is K. pneumoniae 2011E. Described as above. Type of assay: cell-based. Conditions: Klebsiella pneumoniae, 2011E, K. pneumoniae 2011E; read-out: MIC90. The gist of the method:
as §3

For assay [12], the system named is K. pneumoniae β10. The assay is described as above. Type of assay: cell-based. Conditions: Klebsiella pneumoniae; K. pneumoniae β10; read-out: MIC90. The method in brief:
as §3

Assay [13] deals with K. pneumoniae β11. The assay is described as above. The assay is classed as cell-based. Conditions: Klebsiella pneumoniae; K. pneumoniae β11; read-out: MIC90. The gist of the method: as §3
For assay [14], the system named is K. pneumoniae β13. The description is as above. Conditions: Klebsiella pneumoniae, K. pneumoniae β13; read-out: MIC90. Type of assay: cell-based. The method in brief:
as §3

The test system of assay [15] is K. pneumoniae β14. The description is as above. Type of assay: cell-based. Conditions: Klebsiella pneumoniae, read-out: MIC90. The method in brief: as §3
The subject of assay [16] is K. pneumoniae β9. The description is as above. Type of assay: cell-based. Particulars: Klebsiella pneumoniae, K. pneumoniae β9; read-out: MIC90. The method in brief:
as §3

Assay [17] has as its system M. catarrhalis 2524. Described as above. Particulars: Moraxella catarrhalis; M. catarrhalis 2524; read-out: MIC90. Type of assay: cell-based. The method in brief: as §3
In assay [18] the test system is P. aeruginosa 1912E. The assay is described as above. Type of assay: cell-based. Particulars: Pseudomonas aeruginosa, 1912E, read-out: MIC90. The method in brief:
as §3

The test system of assay [19] is P. aeruginosa 37. Described as above. The assay is classed as cell-based. Particulars: Pseudomonas aeruginosa, 37, P. aeruginosa 37; read-out: MIC90. The gist of the method: as §3
Assay [20] relates to P. aeruginosa 40. The assay is described as above. Conditions: Pseudomonas aeruginosa, 40, P. aeruginosa 40; read-out: MIC90. Type of assay: cell-based. The method in brief:
as §3

Assay [21] concerns P. aeruginosa 43. The description is as above. Type of assay: cell-based. Particulars: Pseudomonas aeruginosa; P. aeruginosa 43; read-out: MIC90. The method in brief: as §3
Assay [22] has as its system P. aeruginosa 6065Y. The description is as above. The assay is classed as cell-based. Conditions: Pseudomonas aeruginosa, read-out: MIC90. The gist of the method: as §3
For assay [23], the system named is P. aeruginosa 1912E. The experiment in a line: In vivo efficacy, whole-body infected mouse model, Ceftazidime-sensitive bacteria. Also on record: species or system ICR mouse. Conditions: P. aeruginosa 1912E (2 × 10^6CFU/mouse); for Survival rate: four days. As to the method: (§4) Pharmaceutical efficacy of the cephalosporin derivative compounds according to the present invention was evaluated in a whole-body infected mouse model. Tables 3 and 4 show survival rate and ED50 values for the two compounds with excellent antibacterial activity with regard to an infected mouse by a drug-sensitive bacteria and a drug-resistant bacteria.
(§5) Test animals: 3 week old male ICR mouse, weight 18˜22 g; 5 mice/group.
(§6) Lab conditions: Temperature of 23±2° C.; humidity of 55±20%.
(§7) Administration method: Inducing whole-body infection by bacterial solution followed by subcutaneous injection (0.2 mL) after 1 hour and 4 hours.
(§8) Test method: Cultured bacteria were diluted with 0.9% NaCl to prepare a bacterial solution having a concentration that is 5 to 10 times of […]. 0.5 mL of bacterial solution was injected through abdominal cavity to induce whole-body infection. Test compounds were administered in four different amounts, which were designed considering in vitro MIC values of the test bacteria. After 1 hour and 4 hours, the four different amounts of the test compounds were subcutaneously administered. Survival rates were measured for four days and ED50 values were calculated according to the Probit method.

The subject of assay [24] is P. aeruginosa R1023. The experiment in a line: In vivo efficacy, whole-body infected mouse model, Ceftazidime-resistant bacteria.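 For Survival rate: each column one dose of 5 10 20 or 40 mg/kg given sc at 1 h and 4 h.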 Set-up: species or system ICR mouse. Particulars: for ED50: Pseudomonas aeruginosa, sc, Probit method, subcutaneous, mouse infected by Ceftazidime-resistant P. aeruginosa R1023; for Survival rate: subcutaneous 1 h and 4 h after infection, P. aeruginosa R1023 (2 × 10^6 CFU/mouse), four days. As to the method:
as §4, §5, §6, §7, §8

`Cn1c(N)c(NC(=O)NCCN)c[n+]1CC1=C(C(=O)O)N2C(=O)[C@@H](NC(=O)/C(=N\OC(C)(C)C(=O)[O-])c3nsc(N)n3)[C@H]2SC1` [CXA-101, reference compound]: the “number of clinical isolates that showed the respective MIC value” (“number” below) came to 6 in [1] (MIC >16 ug/mL); 1 in assay [2] (MIC 1 ug/mL); 1 in [2] (MIC 2 ug/mL); 1 in [2] (MIC 16 ug/mL); 35 in assay [2] (MIC >16 ug/mL); 4 in assay [3] (MIC 2 ug/mL). The “number” value in assay [3] (MIC 4 ug/mL) was 4; in assay [3] (MIC 8 ug/mL), 1; in [3] (MIC >16 ug/mL), 7.
With `CC(C)(O/N=C(\C(=O)N[C@@H]1C(=O)N2C(C(=O)[O-])=C(C[n+]3ccccc3)CS[C@H]12)c1csc(N)n1)C(=O)O` [Ceftazidime, reference compound], the MIC90 (commonly the lowest concentration that inhibits either 90% of growth or 90% of the strains tested, depending on the study) in assay [4] was 4 µg/mL (≈ 7.32 µM); in [5] it was over 64 µg/mL; in assay [6], over 64 µg/mL; in [7], 1 µg/mL (≈ 1.83 µM); in assay [8], 32 µg/mL (≈ 58.5 µM); in assay [9], 0.5 µg/mL (≈ 0.915 µM). The MIC90 was 8 µg/mL (≈ 14.6 µM) in [10]; 1 µg/mL (≈ 1.83 µM) in assay [11]; 32 µg/mL (≈ 58.5 µM) in [12]; 64 µg/mL (≈ 117 µM) in assay [13]; 32 µg/mL (≈ 58.5 µM) in [14]; 64 µg/mL (≈ 117 µM) in [15]. Besides, the MIC90 in assay [16] was 16 µg/mL (≈ 29.3 µM); in [17], under 0.0625 µg/mL; in [18] it was 1 µg/mL (≈ 1.83 µM); in assay [19], 64 µg/mL (≈ 117 µM); in [20], 4 µg/mL (≈ 7.32 µM); in assay [21] it was 16 µg/mL (≈ 29.3 µM). In assay [22], the MIC90 amounted to 32 µg/mL (≈ 58.5 µM). Also, the “number” value in assay [1] (MIC >16 ug/mL) stood at 6; in assay [2] (MIC 0.5 ug/mL) it was 2; in [2] (MIC 4 ug/mL), 1; in [2] (MIC 16 ug/mL), 3; in assay [2] (MIC >16 ug/mL) it was 32; in assay [3] (MIC 2 ug/mL), 1. In addition, the “number” value in assay [3] (MIC 4 ug/mL) came to 2; in [3] (MIC 8 ug/mL), 1; in assay [3] (MIC 16 ug/mL), 1; in assay [3] (MIC >16 ug/mL), 11. For the same molecule, the Survival rate in assay [23] (2.5 mg/kg subcutaneous after 1 hour and 4 hours) came out at 40%; in [23] (5 mg/kg subcutaneous after 1 hour and 4 hours) it was 80%; in assay [23] (10 mg/kg subcutaneous after 1 hour and 4 hours), 100%; in [23] (20 mg/kg subcutaneous after 1 hour and 4 hours) it was 100%; in assay [24] (administered amount 5 mg/kg) it was 0%; in assay [24] (administered amount 10 mg/kg), 20%. Moreover, the Survival rate in [24] (administered amount 20 mg/kg) and in assay [24] (administered amount 40 mg/kg) was 20% throughout. Further, the 50% effective dose (ED50) – broadly, the midpoint of the dose-response relation – in assay [23] (Pseudomonas aeruginosa, sc, subcutaneous, Probit method) was 2.5 mg/kg; in assay [24], 640 mg/kg.
On to `C[C@@H](O)[C@H]1C(=O)N2C(C(=O)O)=C(S[C@@H]3CN[C@H](CNS(N)(=O)=O)C3)[C@H](C)[C@H]12` [Doripenem, reference compound], for which the “number” value was 1 in assay [1] (MIC 16 ug/mL); 5 in assay [1] (MIC >16 ug/mL); 1 in assay [2] (MIC 0.0625 ug/mL); 6 in assay [2] (MIC 0.125 ug/mL); 3 in assay [2] (MIC 0.25 ug/mL); 5 in [2] (MIC 0.5 ug/mL). Further, the “number” value in [2] (MIC 1 ug/mL) turned out to be 6; in assay [2] (MIC 2 ug/mL), 5; in [2] (MIC 8 ug/mL), 4; in assay [2] (MIC 16 ug/mL), 2; in [2] (MIC <0.0625 ug/mL), 6; in [3] (MIC 4 ug/mL), 1. In addition, the figures for the “number” value in assay [3] (MIC 8 ug/mL), in assay [3] (MIC 16 ug/mL) and in assay [3] (MIC >16 ug/mL) were 1, 5 and 9, respectively. Further, the 50% effective dose (ED50) in [24] is 28 mg/kg. Moreover, the Survival rate amounted to 0% in [24] (administered amount 5 mg/kg), 20% in [24] (administered amount 10 mg/kg), 20% in assay [24] (administered amount 20 mg/kg) and 80% in assay [24] (administered amount 40 mg/kg).
